Data set [1] is described as follows: Pharmacokinetic study for mouse (single intravenous or gavage administration). As to conditions: for AUC(0-t): read-out: AUC0-24 h. The format is in vivo, mice. As to the method: This experiment aims to evaluate the pharmacokinetic behavior of the compounds after a single intravenous or gavage administration in mice. As for the intravenous administration, the compounds were formulated into 0.5 mg/mL clear solutions, vehicle: 5% DMSO/5% 12-hydroxy stearate (solutol)/90% water; as for the gavage administration, the compounds were formulated into 2 mg/mL suspensions, vehicle: 0.5% sodium carboxymethylcellulose/0.2% Tween 80/99.3% water.
The concentrations of the compounds in plasma were determined by high-performance liquid chromatography-tandem mass spectrometry (LC-MS/MS). The retention time, chromatogram acquisition and integration of the chromatograms of the compounds and the internal standard (diclofenac) were processed using the software Analyst (Applied Biosystems), and data statistics were processed using the software Watson LIMS (Thermo Fisher Scientific) or Analyst (Applied Biosystems). The concentration unit of the analyte in the sample is ng/mL, 3 significant digits were retained, and all the values represented by percentages (e.g., % deviation and % coefficient of variation, etc.) have one decimal place. Each calibration curve contains at least 6 concentration levels. The calibration standard samples were formulated using stock solutions from different sources from the quality control samples. If the deviation between the calculated concentration of a calibration standard sample and the indicated value exceeds ±15.0% (the lower limit of quantitation exceeds ±20.0%), such standard sample should be excluded in regression analysis. The excluded calibration standard samples should be less than 25%, and each calibration curve contains at least 6 calibration standard samples that meet the acceptable standard. If the calibration standard samples at the lower and upper limits of quantification need to be excluded, the upper and lower limits of quantification of this batch of analytes will be increased and decreased accordingly.
Plasma concentrations were processed using a non-compartmental model of the WinNonlin™ Version 6.3 (Pharsight, Mountain View, Calif.) pharmacokinetic software, and pharmacokinetic parameters were calculated using the linear logarithmic trapezoidal method. The pharmacokinetic parameters to be calculated include, but are not limited to (if the data is not allowed), T1/2, Vdss, CL, AUC0-24h of the intravenous group; Cmax, Tmax, AUC0-24h and bioavailability (F %) of the oral gavage group.

Data set [2] has as its system HBV DNA in HepG2.2.15 cells. The data set is described as follows: In vitro anti-HBV activity assay (HBV DNA in HepG2.2.15 supernatant, qPCR). The format is cell-based. The settings on record: Hepatitis B virus, HepG2.2.15, 192 h; inhibition of HBV DNA in supernatant, 8 days culture. As to the method:
1) 100 μL of HepG2.2.15 cells were seeded at a number of 1.2×10^5 cells per well into a 96-well cell culture plate, and then the cells were cultured in a 37° C. incubator with 5% carbon dioxide (CO2) overnight. On day 2, the compounds to be tested were diluted with DMSO in 3-fold gradient to eight concentrations in total. Then the compounds were diluted 100-fold with culture medium, and 100 μL of the diluted compounds were taken and added to the cell-containing plate in a final volume of 200 μL, and the final concentration of DMSO was 0.5%, and two duplicate wells were used. The cells were cultured in a 37° C. incubator with 5% CO2 for 3 days. On day 5, the solutions in the cell culture plate were replaced with fresh culture medium containing the same concentrations of compounds. When culture was performed for 8 days, cell culture plate supernatant was collected for the extraction of HBV DNA.
2) Detection of HBV DNA by real-time quantitative PCR: the total DNA in the supernatant was extracted with QIAamp 96 DNA Blood Kit, and the content of HBV DNA was detected by quantitative PCR using HBV specific primers and probes. 20 μL PCR pre-mixed solution and 5 μL HBV DNA sample or HBV plasmid standard sample were added to a quantitative PCR plate for reaction. The HBV plasmid standard sample was diluted in 10-fold gradient to seven concentrations from 10^7 to 10 copies/μL. The quantitative PCR reaction procedure was as follows: pre-denaturation at 95° C. for 10 minutes; denaturation at 95° C. for 15 seconds, reaction at 60° C. for 1 minute, and this cycle was repeated 40 times. The inhibition rate of each well against HBV DNA was calculated according to the following equation, and the inhibition rate data of the compounds were subjected to a non-linear fitting analysis using GraphPad Prism software to obtain EC50 values of the compounds. HBV DNA inhibition rate %=(1−copy number of HBV DNA of the sample/copy number of HBV DNA of DMSO control)*100% The assay results are shown in Table 1 below.
In general terms: In qPCR the cycle at which signal appears reflects the starting amount.

For a further data set, the system named is HBV. Nature of the data set: In vivo activity assay of HBV DNA in mouse plasmid model of tail vein high-pressure injection (Example 6). Details: species or system female BABL/c mice. As to conditions: 30 mg/Kg, gavage, twice a day. The procedure: The purpose of this study was to test the inhibitory effect of the compound (Example 6) against HBV in mice through a mouse model of high-pressure tail vein injection. In this experiment, female BABL/c mice were used, and the mice were 6-7 weeks old. The HBV plasmid DNA was extracted by using pAAV2-HBV 1.3 mer with Qiagen EndoFree Plasmid Giga kit at a concentration of 1000 ng/μL. The resulting solution was diluted with normal saline before use and stored at 4° C. until use.
100 μL of whole blood was taken from each mouse approximately 4 hours after the first administration On days 1, 3, and 5, and the whole blood was collected into a tube containing sodium heparin, centrifuged at 4° C. at 7000 rpm for 10 minutes, and the supernatant was taken to obtain plasma. The plasma was stored in a refrigerator at −80° C. and transported to an analytical laboratory for testing under dry ice freezing condition.
1) DNA in plasma was extracted, and the experimental procedure was carried out with reference to the instruction for QIAamp 96 DNA Blood Kit.
A qPCR reaction mixture was formulated (see Table 6). The qPCR reaction mixture, sample and standard sample were added to a 96-well reaction plate. The standard sample was plasmid DNA containing the full-length sequence of type D HBV. The standard sample was diluted from 10^7 copies/μL in 10-fold gradient to successively obtain 10^6˜10^1 copies/μL of DNA standard samples. PCR reaction: 95° C., 10 min; 95° C., 15 seconds; 60° C., 1 minute; 40 cycles.
Liver tissue was taken and homogenized with a tissue grinder. After centrifugation, the supernatant was transferred to a new centrifuge tube and digested with proteinase K digestion solution for 3 hours. The resulting mixture was cooled, and then RNAse A was added thereto to incubate for 30 minutes. The RNase A-treated mixture was extracted twice with an equal volume of phenol chloroform isoamyl alcohol to remove residual protein. The supernatant was transferred to a new centrifuge tube, and isopropanol was added thereto to precipitate the DNA. The DNA precipitation was washed twice with 70% ethanol. The precipitation was then air-dried and TE (10 mM Tris-HCl, pH 8.0, 1 mM EDTA) was added thereto to dissolve the DNA.
The DNA concentrations were measured with Nanodrop and adjusted to 10 ng/μL for all the samples. 5 μL samples were added to the quantitative PCR reaction system for quantitative PCR.
HBV DNA content=DNA content detected by HBV primer-DNA content detected by pAAV2 primer.

Setting [3] is: plasma, intravenous injection, 1 mg/Kg.

Data on one compound can be found in patent US11572372B2, “Anti-HBVtetrahydroisoxazolo[4,3-c]pyridine compounds” (CHIA TAI TIANQING PHARMACEUTICAL GROUP CO., LTD., priority 2017, dated 2023).

Molecules are shown by their SMILES. Like-named read-outs stand apart in the source and are kept apart here.

As for `C[C@H]1Cc2noc(-c3ccc(F)cc3F)c2CN1C(=O)Nc1cc(F)c(F)c(F)c1` [Example 6], the F in data set [1] (oral gavage, 10 mg/Kg) is recorded as 58.4%. Further, the clearance in data set [1] (setting [3]) was found to be 2.84 mL/min/kg. Also, in data set [1] (setting [3]), the half-life was 9.31 h. Moreover, the AUC(0-t) was 11.4 µM·h in data set [1] (setting [3]) and 66.7 µM·h in data set [1] (plasma, oral gavage, 10 mg/Kg). The Vd in data set [1] (plasma, intravenous injection, 1 mg/Kg, read-out: Vdss) is 2.33 L/kg. The Cmax in data set [1] (plasma, oral gavage, 10 mg/Kg) was 4.94 µM. The Tmax in data set [1] (plasma, oral gavage, 10 mg/Kg) is 0.5 h. In data set [2], this compound displayed an EC50 of 4.9 nM. The “Log HBV DNA mean value” in the data set with HBV (liver tissue after 7 days of administration, solvent control 5.67) amounted to 3.09 copy number/μL; in the data set with HBV (plasma, Day 1, solvent control 2.22, Log(LLOQ) = 1.60), 2.23 copy number/μL; in the data set with HBV (plasma, Day 3, solvent control 4.51, Log(LLOQ) = 1.60), 1.74 copy number/μL; in the data set with HBV (plasma, Day 5, solvent control 5.01, Log(LLOQ) = 1.60) it was 2.02 copy number/μL; in the data set on HBV (plasma, Day 7, solvent control 3.30, Log(LLOQ) = 1.60), 1.85 copy number/μL.

In general, half-life refers to the time in which the quantity being followed falls by half. Low readings indicate fast loss, high ones slow loss. The Cmax is the peak of the concentration-time curve. One may read the Tmax as the time at which the peak concentration occurs. What is called EC50 is the concentration at which the effect is half-maximal. The low end stands for a more potent agent, the high end for a less potent agent.
